In PubChem BioAssay AID256 (DTP/NCI, 2004):
“And” between values parts separate entries of the source, which are not always exact repeats. Identical values can stand only once. Inconclusive results and toxic doses are left out.

Tested on: CD2F1 mice, L1210 leukemia ip, survival T/C
Assay: NCI In Vivo Anticancer Drug Screen. Data for tumor model L1210 Leukemia (intraperitoneal) in CD2F1 (CDF1) mice
Conditions: higher = longer survival
Method in brief: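 In this screen, transplantable tumors were grown in mice given either the compound or its vehicle. Results were expressed as the treated measurement relative to the control measurement.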

[1] = endpoint: mean survival time, dose: 12.5 mg/kg/injection, schedule: Q01DX009 (ip), vehicle: saline
[2] = endpoint: mean survival time, dose: 25.0 mg/kg/injection, schedule: Q01DX009 (ip), vehicle: saline
[3] = endpoint: mean survival time, dose: 50.0 mg/kg/injection, schedule: Q01DX009 (ip), vehicle: saline with Tween-80
[4] = endpoint: mean survival time, dose: 50.0 mg/kg/injection, schedule: Q01DX009 (ip), vehicle: saline
[5] = endpoint: mean survival time, dose: 100.0 mg/kg/injection, schedule: Q01DX009 (ip), vehicle: saline with Tween-80
[6] = endpoint: mean survival time, dose: 100.0 mg/kg/injection, schedule: Q01DX009 (ip), vehicle: saline
[7] = endpoint: mean survival time, dose: 200.0 mg/kg/injection, schedule: Q01DX009 (ip), vehicle: saline with Tween-80
[8] = endpoint: mean survival time, dose: 200.0 mg/kg/injection, schedule: Q01DX009 (ip), vehicle: saline
[9] = endpoint: mean survival time, dose: 12.5 mg/kg/injection, schedule: Q04DX003 (ip), vehicle: saline with Tween-80
[10] = endpoint: mean survival time, dose: 25.0 mg/kg/injection, schedule: Q04DX003 (ip), vehicle: saline with Tween-80
[11] = endpoint: mean survival time, dose: 50.0 mg/kg/injection, schedule: Q04DX003 (ip), vehicle: saline with Tween-80
[12] = endpoint: mean survival time, dose: 100.0 mg/kg/injection, schedule: Q04DX003 (ip), vehicle: saline with Tween-80
[13] = endpoint: mean survival time, dose: 200.0 mg/kg/injection, schedule: Q04DX003 (ip), vehicle: saline with Tween-80
[14] = endpoint: mean survival time, dose: 400.0 mg/kg/injection, schedule: Q04DX003 (ip), vehicle: saline with Tween-80
[15] = endpoint: mean survival time, dose: 100.0 mg/kg/injection, schedule: Q04DX002 (ip), vehicle: saline with Tween-80
[16] = endpoint: mean survival time, dose: 200.0 mg/kg/injection, schedule: Q04DX002 (ip), vehicle: saline with Tween-80
[17] = endpoint: mean survival time, dose: 400.0 mg/kg/injection, schedule: Q04DX002 (ip), vehicle: saline with Tween-80
[18] = endpoint: mean survival time, dose: 75.0 mg/kg/injection, schedule: Q01DX001 (ip), vehicle: saline

CCN=c1cc2oc3cc(NCC)c(C)cc3c(-c3ccccc3C(=O)OCC)c-2cc1C
T/C (endpoint: mean survival time, dose: 2.5 mg/kg/injection, schedule: Q04DX003 (ip), vehicle: saline): 101 % of control | T/C (endpoint: mean survival time, dose: 5.0 mg/kg/injection, schedule: Q04DX003 (ip), vehicle: saline): 109 % of control | T/C (endpoint: mean survival time, dose: 10.0 mg/kg/injection, schedule: Q04DX003 (ip), vehicle: saline): 90 % of control and 102 % of control

C=CCOCC1CO1 (stereo not given)
T/C [1]: 102 % of control and 103 % of control | T/C [2]: 102 % of control and 111 % of control | T/C [3]: 100 % of control | T/C [4]: 98 % of control and 108 % of control | T/C [5]: 97 % of control | T/C [6]: 94 % of control and 104 % of control | T/C [7]: 103 % of control | T/C [8]: 114 % of control and 105 % of control | T/C (endpoint: mean survival time, dose: 400.0 mg/kg/injection, schedule: Q01DX009 (ip), vehicle: saline with Tween-80): 105 % of control

Cc1ccc([NH-])c(Cl)c1.Cc1ccc([NH-])c(Cl)c1.[Cl][Pt+2][Cl]
T/C [9]: 95 % of control | T/C [10]: 97 % of control | T/C [11]: 97 % of control | T/C [12]: 97 % of control | T/C [13]: 89 % of control

NCc1c(Cl)c(Cl)c(Cl)c(CN)c1Cl
T/C [11]: 100 % of control | T/C [12]: 100 % of control | T/C [13]: 98 % of control

CC[NH-].[Cl][Pt+2][Cl].[NH2-]
T/C (endpoint: mean survival time, dose: 1.56 mg/kg/injection, schedule: Q04DX003 (ip), vehicle: water): 118 % of control | T/C (endpoint: mean survival time, dose: 3.13 mg/kg/injection, schedule: Q04DX003 (ip), vehicle: distilled water + Tween-80): 119 % of control | T/C (endpoint: mean survival time, dose: 6.25 mg/kg/injection, schedule: Q04DX003 (ip), vehicle: water): 124 % of control | T/C (endpoint: mean survival time, dose: 25.0 mg/kg/injection, schedule: Q04DX003 (ip), vehicle: distilled water + Tween-80): 98 % of control

CC1=C[S+](c2ccccc2)c2cccc3cc4ccccc4c1c23 (stereo not given)
T/C (endpoint: mean survival time, dose: 5.0 mg/kg/injection, schedule: Q01DX001 (ip), vehicle: saline with Tween-80): 111 % of control | T/C (endpoint: mean survival time, dose: 10.0 mg/kg/injection, schedule: Q01DX001 (ip), vehicle: saline with Tween-80): 106 % of control | T/C (endpoint: median survival time, dose: 0.06 mg/kg/injection, schedule: Q01DX009 (ip), vehicle: saline with Tween-80): 105 % of control | T/C (endpoint: median survival time, dose: 0.12 mg/kg/injection, schedule: Q01DX009 (ip), vehicle: saline with Tween-80): 105 % of control | T/C (endpoint: median survival time, dose: 0.25 mg/kg/injection, schedule: Q01DX009 (ip), vehicle: saline with Tween-80): 107 % of control | T/C (endpoint: median survival time, dose: 0.5 mg/kg/injection, schedule: Q01DX009 (ip), vehicle: saline with Tween-80): 109 % of control | T/C (endpoint: median survival time, dose: 1.0 mg/kg/injection, schedule: Q01DX009 (ip), vehicle: saline with Tween-80): 109 % of control | T/C (endpoint: median survival time, dose: 2.0 mg/kg/injection, schedule: Q01DX009 (ip), vehicle: saline with Tween-80): 115 % of control

Cc1c(CNc2ccc(C(=O)NC(CC(=O)O)CC(=O)O)cc2)ccc2nc(N)nc(N)c12
T/C (endpoint: mean survival time, dose: 0.25 mg/kg/injection, schedule: Q01DX009 (ip), vehicle: saline): 171 % of control | T/C (endpoint: mean survival time, dose: 0.5 mg/kg/injection, schedule: Q01DX009 (ip), vehicle: saline): 118 % of control | T/C (endpoint: mean survival time, dose: 1.0 mg/kg/injection, schedule: Q01DX009 (ip), vehicle: saline): 104 % of control

OC(CCc1ccccc1)(C(F)(F)Cl)C(F)(F)Cl
T/C [12]: 98 % of control | T/C [13]: 89 % of control | T/C [14]: 92 % of control

C=CS(=O)(=O)c1ccccc1
T/C (endpoint: mean survival time, dose: 18.0 mg/kg/injection, schedule: Q01DX009 (ip), vehicle: saline with Tween-80): 96 % of control | T/C (endpoint: mean survival time, dose: 36.0 mg/kg/injection, schedule: Q01DX009 (ip), vehicle: saline with Tween-80): 93 % of control | T/C (endpoint: mean survival time, dose: 72.0 mg/kg/injection, schedule: Q01DX009 (ip), vehicle: saline with Tween-80): 112 % of control

OCCNCc1ccc(Cl)cc1
T/C [3]: 96 % of control | T/C [5]: 98 % of control | T/C [12]: 103 % of control | T/C [7]: 93 % of control | T/C [13]: 96 % of control

Cc1ccc([N+](=O)[O-])cc1NC(=O)C(Cl)(Cl)Cl
T/C [12]: 93 % of control | T/C [13]: 93 % of control | T/C [14]: 107 % of control

O=C1CC(=O)NC(=S)N1
T/C [6]: 95 % of control | T/C [8]: 93 % of control

COP(=O)(OC)OCC1OC(n2cnc3c(N)ncnc32)C(O)C1O (stereo not given)
T/C (endpoint: median survival time, dose: 12.5 mg/kg/injection, schedule: Q01DX005 (ip), vehicle: water): 96 % of control | T/C (endpoint: median survival time, dose: 25.0 mg/kg/injection, schedule: Q01DX005 (ip), vehicle: water): 96 % of control | T/C (endpoint: median survival time, dose: 50.0 mg/kg/injection, schedule: Q01DX005 (ip), vehicle: water): 102 % of control | T/C (endpoint: median survival time, dose: 100.0 mg/kg/injection, schedule: Q01DX005 (ip), vehicle: water): 103 % of control | T/C (endpoint: median survival time, dose: 200.0 mg/kg/injection, schedule: Q01DX005 (ip), vehicle: water): 100 % of control

Cc1ccc(S(=O)(=O)OCC2C3CC(c4ccccc43)C2COS(=O)(=O)c2ccc(C)cc2)cc1 (stereo not given)
T/C [15]: 102 % of control | T/C [16]: 111 % of control | T/C [17]: 95 % of control

O=C(OC/C=C/CCl)c1ccc([N+](=O)[O-])cc1
T/C (endpoint: mean survival time, dose: 25.0 mg/kg/injection, schedule: Q01DX009 (ip), vehicle: saline with Tween-80): 95 % of control | T/C [3]: 94 % of control | T/C [5]: 91 % of control and 94 % of control

CC(O)(C(=O)O)c1ccccc1 (stereo not given)
T/C [18]: 102 % of control | T/C (endpoint: mean survival time, dose: 150.0 mg/kg/injection, schedule: Q01DX001 (ip), vehicle: saline): 112 % of control | T/C (endpoint: mean survival time, dose: 300.0 mg/kg/injection, schedule: Q01DX001 (ip), vehicle: saline): 100 % of control

O=N[O-].[Co].[NH2-].[NH2-].[NH2-].[NH2-].[NH2-]
T/C [1]: 103 % of control | T/C (endpoint: mean survival time, dose: 25.0 mg/kg/injection, schedule: Q01DX003 (ip), vehicle: saline): 93 % of control | T/C [2]: 103 % of control | T/C (endpoint: mean survival time, dose: 50.0 mg/kg/injection, schedule: Q01DX003 (ip), vehicle: saline): 100 % of control | T/C [4]: 105 % of control

[CH-]=C([CH2-])C.[Ni][Br].c1ccc([PH+](c2ccccc2)c2ccccc2)cc1
T/C (endpoint: mean survival time, dose: 25.0 mg/kg/injection, schedule: Q01DX001 (ip), vehicle: saline with Tween-80): 101 % of control | T/C (endpoint: mean survival time, dose: 50.0 mg/kg/injection, schedule: Q01DX001 (ip), vehicle: saline with Tween-80): 101 % of control | T/C (endpoint: mean survival time, dose: 100.0 mg/kg/injection, schedule: Q01DX001 (ip), vehicle: saline with Tween-80): 108 % of control

Cc1ccc(S(=O)(=O)N2CCCCC2)cc1
T/C [4]: 91 % of control | T/C [6]: 93 % of control | T/C [8]: 93 % of control

NNC(=O)c1ccc(Cl)cc1Cl
T/C (endpoint: mean survival time, dose: 6.25 mg/kg/injection, schedule: Q04DX003 (ip), vehicle: saline with Tween-80): 97 % of control | T/C [9]: 101 % of control | T/C [10]: 103 % of control

CCOC(=O)Cc1nnc2ncnc(N)c2n1
T/C (endpoint: mean survival time, dose: 100.0 mg/kg/injection, schedule: Q01DX001 (ip), vehicle: other): 101 % of control | T/C (endpoint: mean survival time, dose: 200.0 mg/kg/injection, schedule: Q01DX001 (ip), vehicle: other): 103 % of control | T/C (endpoint: mean survival time, dose: 400.0 mg/kg/injection, schedule: Q01DX001 (ip), vehicle: other): 98 % of control

CCNC(=O)OC(C)C
T/C [15]: 90 % of control | T/C [16]: 102 % of control | T/C [17]: 94 % of control

Nc1cccc2c(S(=O)(=O)O)cccc12
T/C (endpoint: mean survival time, dose: 100.0 mg/kg/injection, schedule: Q04DX003 (ip), vehicle: saline): 100 % of control | T/C (endpoint: mean survival time, dose: 200.0 mg/kg/injection, schedule: Q04DX003 (ip), vehicle: saline): 100 % of control | T/C (endpoint: mean survival time, dose: 400.0 mg/kg/injection, schedule: Q04DX003 (ip), vehicle: saline): 97 % of control

CNC(C1CCCCC1)C(C)OC(=O)c1ccc(N)cc1 (stereo not given)
T/C [18]: 100 % of control

Oc1ccc2ccccc2c1
T/C (endpoint: mean survival time, dose: 10.0 mg/kg/injection, schedule: Q04DX003 (ip), vehicle: Klucel (hydroxypropylcellulose) (HPC)): 101 % of control | T/C (endpoint: mean survival time, dose: 20.0 mg/kg/injection, schedule: Q04DX003 (ip), vehicle: Klucel (hydroxypropylcellulose) (HPC)): 96 % of control | T/C (endpoint: mean survival time, dose: 40.0 mg/kg/injection, schedule: Q04DX003 (ip), vehicle: Klucel (hydroxypropylcellulose) (HPC)): 96 % of control

CCN(CC)C(=S)Nc1ccc(Cl)cc1
T/C [15]: 102 % of control | T/C [16]: 102 % of control | T/C [17]: 102 % of control
